Measurements from US20220218852A1, “NOVEL RADIOLABELLED CXCR4-TARGETING COMPOUNDS FOR DIAGNOSIS AND THERAPY” (PROVINCIAL HEALTH SERVICES AUTHORITY, priority 2019, published 2022).
Read-outs that look alike come from different tables or passages of the source. Positions of bridges follow the written chain, without caps; N, C: chain ends. Non-standard residues stand in square brackets, D forms with d. Residues, ends and D or L forms follow the SMILES beside them. Groups on a side chain read outwards from the residue. *: point of attachment. DOTA = O=C(O)CN1CCN(CC(=O)O)CCN(CC(=O)*)CCN(CC(=O)O)CC1; 2Nal = N[C@@H](Cc1ccc2ccccc2c1)C(=O)O; Lys(iPr) = CC(C)NCCCC[C@H](N)C(=O)O

Assays:
Type in all cases: in vivo
[1] = tested on: Daudi Burkitt's lymphoma xenografts; assay: Biodistribution in Daudi tumor-bearing mice; details: Daudi
Procedure: (§1) For Daudi, Z138, GRANTA519 and Jeko1 xenografts, male NOD.Cg-Rag1^tm1MomII2rg^tm1Wjl/SzJ (NRG) mice were subcutaneously inoculated on the left flank with 5×10^6 cells (100 μL; 1:1 ratio of PBS/Matrigel) and tumors were grown to a size of 200-500 mm^3. For PC-3 xenografts, male NOD.Cg-Rag1^tm1MomII2rg^tm1Wjl/SzJ (NRG) mice were subcutaneously inoculated on the left flank with 5×10^6 PC-3 cells (100 μL; 1:1 ratio of PBS/Matrigel) and tumors were grown to a size of 200-400 mm^3.
(§2) The mice were euthanized via CO2 inhalation while anesthetized with isoflurane. Tissues were harvested, washed in PBS, blotted dry, weighed, and measured on a Hidex AMG Automatic Gamma Counter.

[2] = Biodistribution in Daudi tumor-bearing mice; details: male, NOD.Cg-Rag1^tm1MomII2rg^tm1Wjl/SzJ (NRG), mouse, iv, total radioactivity, Daudi
Procedure: as §1, §2

[3] = tested on: Z138 mantle cell lymphoma xenografts; assay: Biodistribution in Z138 tumor-bearing mice; details: Z138
Procedure: as §1, §2

[4] = Biodistribution in Z138 tumor-bearing mice; details: male, NOD.Cg-Rag1^tm1MomII2rg^tm1Wjl/SzJ (NRG), mouse, iv, total radioactivity, Z138
Procedure: as §1, §2

[5] = 1 h blocked (7.5 μg LY2510924 i.p.)
[6] = blood, 1 h, read-out: Biodistribution Blood
[7] = blood, 1 h blocked (7.5 μg LY2510924 i.p.), read-out: Biodistribution Blood
[8] = fat, 1 h, read-out: Biodistribution Fat
[9] = fat, 1 h blocked (7.5 μg LY2510924 i.p.), read-out: Biodistribution Fat

SMILES: CC(C)NCCCC[C@@H]1NC(=O)[C@H](Cc2ccc(O)cc2)NC(=O)[C@H](Cc2ccccc2)NC(=O)CC[C@H](C(=O)N[C@@H](CCCCNC(C)C)C(=O)N[C@@H](CCCCNC(=O)[C@H](CCC(=O)O)NC(=O)[C@H](CCC(=O)O)NC(=O)[C@H](CCC(=O)O)NC(=O)CN2CCN(CC(=O)O)CCN(CC(=O)O)CCN(CC(=O)O)CC2)C(N)=O)NC(=O)CNC(=O)[C@H](Cc2ccc3ccccc3c2)NC(=O)[C@@H](CCCNC(=N)N)NC1=O [[^68Ga]Ga-BL02, metal not drawn] (FY[Lys(iPr)][dR][2Nal]G[dE][Lys(iPr)]K([Glu-Glu-Glu-DOTA])-NH2; lactam N-7)
- Biodistribution Adrenals ([1]; 1 h): 0.36 % ID/g
- Biodistribution Bone ([1]; 1 h): 0.19 % ID/g
- Biodistribution Brain ([1]; 1 h): 0.02 % ID/g
- Biodistribution Daudi (tumor) ([1]; 1 h): 8.52 % ID/g
- Biodistribution Heart ([1]; 1 h): 0.13 % ID/g
- Biodistribution Intestine ([1]; 1 h): 0.22 % ID/g
- Biodistribution Kidney ([1]; 1 h): 4.18 % ID/g
- Biodistribution Liver ([1]; 1 h): 0.59 % ID/g
- Biodistribution Lung ([1]; 1 h): 0.48 % ID/g
- Biodistribution Muscle ([1]; 1 h): 0.10 % ID/g
- Biodistribution Pancreas ([1]; 1 h): 0.18 % ID/g
- Biodistribution Spleen ([1]; 1 h): 0.53 % ID/g
- Biodistribution Stomach ([1]; 1 h): 0.07 % ID/g
- Biodistribution Testes ([1]; 1 h): 0.11 % ID/g
- Ratio Tumor: Blood ([1]; 1 h): 30.57
- Ratio Tumor: Bone ([1]; 1 h): 48.04
- Ratio Tumor: Liver ([1]; 1 h): 14.30
- Ratio Tumor: Lung ([1]; 1 h): 18.07
- Ratio Tumor: Muscle ([1]; 1 h): 80.77
- Ratio Tumor: Spleen ([1]; 1 h): 17.18
- Biodistribution Adrenals [1, 5]: 0.32 % ID/g
- Biodistribution Bone [1, 5]: 0.20 % ID/g
- Biodistribution Brain [1, 5]: 0.02 % ID/g
- Biodistribution Heart [1, 5]: 0.14 % ID/g
- Biodistribution Intestine [1, 5]: 0.31 % ID/g
- Biodistribution Kidney [1, 5]: 4.63 % ID/g
- Biodistribution Liver [1, 5]: 0.55 % ID/g
- Biodistribution Lung [1, 5]: 0.58 % ID/g
- Biodistribution Muscle [1, 5]: 0.09 % ID/g
- Biodistribution Pancreas [1, 5]: 0.12 % ID/g
- Biodistribution Spleen [1, 5]: 0.23 % ID/g
- Biodistribution Stomach [1, 5]: 0.07 % ID/g
- Biodistribution Testes [1, 5]: 0.15 % ID/g
- Ratio Tumor: Blood [1, 5]: 1.71
- Ratio Tumor: Bone [1, 5]: 4.44
- Ratio Tumor: Liver [1, 5]: 1.47
- Ratio Tumor: Lung [1, 5]: 1.43
- Ratio Tumor: Muscle [1, 5]: 9.23
- Ratio Tumor: Spleen [1, 5]: 3.57
- Biodistribution Adrenals ([1]; 2 h): 0.21 % ID/g
- Biodistribution Bone ([1]; 2 h): 0.09 % ID/g
- Biodistribution Brain ([1]; 2 h): 0.01 % ID/g
- Biodistribution Heart ([1]; 2 h): 0.05 % ID/g
- Biodistribution Intestine ([1]; 2 h): 0.12 % ID/g
- Biodistribution Kidney ([1]; 2 h): 3.40 % ID/g
- Biodistribution Liver ([1]; 2 h): 0.54 % ID/g
- Biodistribution Lung ([1]; 2 h): 0.27 % ID/g
- Biodistribution Muscle ([1]; 2 h): 0.04 % ID/g
- Biodistribution Pancreas ([1]; 2 h): 0.05 % ID/g
- Biodistribution Spleen ([1]; 2 h): 0.24 % ID/g
- Biodistribution Stomach ([1]; 2 h): 0.07 % ID/g
- Biodistribution Testes ([1]; 2 h): 0.05 % ID/g
- Ratio Tumor: Blood ([1]; 2 h): 114.6
- Ratio Tumor: Bone ([1]; 2 h): 87.81
- Ratio Tumor: Liver ([1]; 2 h): 14.47
- Ratio Tumor: Lung ([1]; 2 h): 31.68
- Ratio Tumor: Muscle ([1]; 2 h): 216.0
- Ratio Tumor: Spleen ([1]; 2 h): 36.06
- tissue uptake at 1 h [2, 6]: 0.31 %ID/g
- tissue uptake at 1 h [2, 7]: 0.5 %ID/g
- tissue uptake at 2 h ([2]; blood, read-out: Biodistribution Blood): 0.08 %ID/g
- tissue uptake at 1 h [2, 8]: 0.05 %ID/g
- tissue uptake at 1 h [2, 9]: 0.07 %ID/g
- tissue uptake at 2 h ([2]; fat, read-out: Biodistribution Fat): 0.02 %ID/g
- tissue uptake at 1 h ([2]; tumor, 1 h blocked (7.5 μg LY2510924 i.p.), read-out: Biodistribution Daudi (tumor)): 0.8 %ID/g
- tissue uptake at 2 h ([2]; tumor, read-out: Biodistribution Daudi (tumor)): 7.78 %ID/g
- Ratio Tumor: Blood ([3]; 1 h): 43.12
- Ratio Tumor: Bone ([3]; 1 h): 163.06
- Ratio Tumor: Liver ([3]; 1 h): 26.89
- Ratio Tumor: Lung ([3]; 1 h): 26.39
- Ratio Tumor: Muscle ([3]; 1 h): 240.96
- Ratio Tumor: Spleen ([3]; 1 h): 39.22
- Ratio Tumor: Blood [3, 5]: 3.94
- Ratio Tumor: Bone [3, 5]: 19.08
- Ratio Tumor: Liver [3, 5]: 5.23
- Ratio Tumor: Lung [3, 5]: 3.65
- Ratio Tumor: Muscle [3, 5]: 21.59
- Ratio Tumor: Spleen [3, 5]: 7.40
- tissue uptake at 1 h ([4]; Z138 tumor, 1 h, read-out: Biodistribution Z138 (tumor)): 12.9 %ID/g
- tissue uptake at 1 h ([4]; Z138 tumor, 1 h blocked (7.5 μg LY2510924 i.p.), read-out: Biodistribution Z138 (tumor)): 2.86 %ID/g
- tissue uptake at 1 h ([4]; adrenals, 1 h, read-out: Biodistribution Adrenals): 0.14 %ID/g
- tissue uptake at 1 h ([4]; adrenals, 1 h blocked (7.5 μg LY2510924 i.p.), read-out: Biodistribution Adrenals): 0.59 %ID/g
- tissue uptake at 1 h [4, 6]: 0.3 %ID/g
- tissue uptake at 1 h [4, 7]: 0.83 %ID/g
- tissue uptake at 1 h ([4]; bone, 1 h, read-out: Biodistribution Bone): 0.08 %ID/g
- tissue uptake at 1 h ([4]; bone, 1 h blocked (7.5 μg LY2510924 i.p.), read-out: Biodistribution Bone): 0.2 %ID/g
- tissue uptake at 1 h ([4]; brain, 1 h, read-out: Biodistribution Brain): 0.01 %ID/g
- tissue uptake at 1 h ([4]; brain, 1 h blocked (7.5 μg LY2510924 i.p.), read-out: Biodistribution Brain): 0.02 %ID/g
- tissue uptake at 1 h [4, 8]: 0.04 %ID/g
- tissue uptake at 1 h [4, 9]: 0.14 %ID/g
- tissue uptake at 1 h ([4]; heart, 1 h, read-out: Biodistribution Heart): 0.11 %ID/g
- tissue uptake at 1 h ([4]; heart, 1 h blocked (7.5 μg LY2510924 i.p.), read-out: Biodistribution Heart): 0.24 %ID/g
- tissue uptake at 1 h ([4]; intestine, 1 h, read-out: Biodistribution Intestine): 0.19 %ID/g
- tissue uptake at 1 h ([4]; intestine, 1 h blocked (7.5 μg LY2510924 i.p.), read-out: Biodistribution Intestine): 0.61 %ID/g
- tissue uptake at 1 h ([4]; kidney, 1 h, read-out: Biodistribution Kidney): 3.48 %ID/g
- tissue uptake at 1 h ([4]; kidney, 1 h blocked (7.5 μg LY2510924 i.p.), read-out: Biodistribution Kidney): 7.86 %ID/g
- tissue uptake at 1 h ([4]; liver, 1 h, read-out: Biodistribution Liver): 0.48 %ID/g
- tissue uptake at 1 h ([4]; liver, 1 h blocked (7.5 μg LY2510924 i.p.), read-out: Biodistribution Liver): 0.55 %ID/g
- tissue uptake at 1 h ([4]; lung, 1 h, read-out: Biodistribution Lung): 0.5 %ID/g
- tissue uptake at 1 h ([4]; lung, 1 h blocked (7.5 μg LY2510924 i.p.), read-out: Biodistribution Lung): 0.85 %ID/g
- tissue uptake at 1 h ([4]; muscle, 1 h, read-out: Biodistribution Muscle): 0.05 %ID/g
- tissue uptake at 1 h ([4]; muscle, 1 h blocked (7.5 μg LY2510924 i.p.), read-out: Biodistribution Muscle): 0.15 %ID/g
- tissue uptake at 1 h ([4]; pancreas, 1 h, read-out: Biodistribution Pancreas): 0.08 %ID/g
- tissue uptake at 1 h ([4]; pancreas, 1 h blocked (7.5 μg LY2510924 i.p.), read-out: Biodistribution Pancreas): 0.21 %ID/g
- tissue uptake at 1 h ([4]; spleen, 1 h, read-out: Biodistribution Spleen): 0.33 %ID/g
- tissue uptake at 1 h ([4]; spleen, 1 h blocked (7.5 μg LY2510924 i.p.), read-out: Biodistribution Spleen): 0.43 %ID/g
- tissue uptake at 1 h ([4]; stomach, 1 h, read-out: Biodistribution Stomach): 0.07 %ID/g
- tissue uptake at 1 h ([4]; stomach, 1 h blocked (7.5 μg LY2510924 i.p.), read-out: Biodistribution Stomach): 0.16 %ID/g
- tissue uptake at 1 h ([4]; testes, 1 h, read-out: Biodistribution Testes): 0.11 %ID/g
- tissue uptake at 1 h ([4]; testes, 1 h blocked (7.5 μg LY2510924 i.p.), read-out: Biodistribution Testes): 0.26 %ID/g
